Laboratory results as given in article PMC6030077, “Dual role of HDAC10 in lysosomal exocytosis and DNA repair promotes neuroblastoma chemoresistance” (Scientific Reports, 2018).

Tests used:
Format in all cases: cell-based, human
IMR-32 cells = assay: Flow cytometric quantification of intracellular doxorubicin accumulation, IMR-32; conditions: 50 ng/ml doxorubicin +/− 7.5 µM tubastatin A, 18 h
Method: For flow cytometric quantification of intracellular doxorubicin after HDAC6/10 inhibition, BE(2)-C, SK-N-AS, IMR-32, HAP1 wild type and HDAC10 knockout cells were seeded in 6-well dishes at a density of 1.5 ∗ 10^5 cells/well (BE(2)-C and SK-N-AS, HAP1) and 3 ∗ 10^5 cells/well (IMR-32). Cells were treated with 25 ng/ml, 50 ng/ml, 100 ng/ml or 1 µg/ml doxorubicin, respectively, for 3–48 h (see respective figure legend). Where indicated, cells were co-treated with HDAC6/10 or lysosomal inhibitors. In case of co-treatment with vacuolin-1, vacuolin-1 was directly added to cells under doxorubicin treatment 1 h or 24 h prior to analysis. Flow cytometric quantification of intracellular doxorubicin after HDAC6, HDAC10 or P-glycoprotein knockdown in BE(2)-C cells was performed 5 days (P-glycoprotein) or 6 days (HDAC6/10) after transfection with siRNA. To that end, cells were seeded 3–4 days after transfection into 6-well dishes at 1.5 ∗ 10^5 cells per well and treated with 100 ng/ml doxorubicin +/− HDAC6/10 and lysosomal inhibitors for the last 24 h. After doxorubicin treatment, BE(2)-C, SK-N-AS, IMR-32 and HAP1 cells were washed with ice-cold RPMI w/o phenol-red and detached using Trypsin/EDTA for 3 minutes at 37 °C. Cells were centrifuged, resuspended in RPMI w/o phenol red and doxorubicin fluorescence was quantified on a BD FACSCanto II platform using the PE filter setting.

P-glycoprotein = assay: Flow cytometric quantification of cell surface P-gp expression; conditions: BE(2)-C; 6 h tubastatin A 7.5 µM; vacuolin-1 10 µM 1 h
Method: (§1) Cells were dissociated from dishes using non-enzymatic cell dissociation reagent for five minutes. Cells were counted using a ViCell XR automatic cell counter (Beckmann Coulter) and 2.5 ∗ 10^5 cells were transferred into a pre-cooled 96-well round bottom plate (TPP92097). Cells were stained for 1.5–2 hours on ice with primary anti P-gp (Biozol ABA-AB00143-1.1), LAMP-1 (H4A3, DHSB) antibody or isotype control (DLN-05794, Dianova, Barcelona, Spain) and for 1 hour with APC-labeled secondary antibody (Dianova 115-136-068). Cells were washed three times in FACS buffer (5% FBS in PBS) after each antibody incubation step. For evaluation of DNA double-strand breaks, cells were detached from dishes using trypsin, counted using a ViCell XR automatic cell counter (Beckmann Coulter) and transferred into a pre-cooled 96-well round bottom plate (4 ∗ 10^6 cells/well). Cells were fixed and permeabilized using the eBioscience^TM Foxp3/Transcription Factor Staining Buffer Set (Thermo Fisher Scientific). Cells were stained for 1.5 h with Phospho-Histone H2A.X (S139) primary antibody (CST #9718) and for 1 h in Alexa-488-labeled secondary antibody (ThermoFisher A-11008). Cells were washed three times in 1× permeabilization buffer after each antibody incubation step and fluorescence was quantified on a BD FACSCanto II platform.

BE(2)-C cells [1] = assay: Cell viability, automated trypan blue exclusion, BE(2)-C
Method: Adherent cell lines were trypsinized and cells were pooled with corresponding supernatant, centrifuged and resuspended in 1.5 ml cell culture media. Cell viability was measured by automated trypan blue staining with the Vi-Cell XR Cell Viability Analyzer from Beckman Coulter (Krefeld, Germany).

BE(2)-C cells [2] = assay: Flow cytometric analysis of γH2A.X staining (DNA double-strand breaks); conditions: 24 h, tubastatin A 7.5 µM, vacuolin-1 10 µM
Method: as §1, with “Cells were stained for 1.5–2 hours on ice with primary anti P-gp (Biozol ABA-AB00143-1.1), LAMP-1 (H4A3, DHSB) antibody or isotype control (DLN-05794, Dianova, Barcelona, Spain) and for 1 hour with APC-labeled secondary antibody (Dianova 115-136-068).” left out, “Cells were stained for 1.5 h with Phospho-Histone H2A.X (S139) primary antibody (CST #9718) and for 1 h in Alexa-488-labeled secondary antibody (ThermoFisher A-11008).” left out

BE(2)-C cells [3] = assay: Alkaline single cell gel electrophoresis assay (comet assay); conditions: 18 h
Method: BE(2)-C cells were treated with the HDAC6/10 inhibitor tubastatin A alone or in combination with the genotoxic drug doxorubicin (100 ng/ml doxorubicin, 7.5 µM tubastatin) for 18 h. Untreated cell aliquots and cells irradiated with 5 Gy (^137Cs radiation source, dose rate of 1 Gy min^−1) were used as negative and positive controls, respectively. Cells were subsequently analyzed by the alkaline comet assay as previously described[68],[69] with some modifications. In brief, the cells were mixed with 0.7% low-melting temperature agarose (Biozym), plated on two-well slides (Trevigen), and subsequently lysed overnight. Single cell electrophoresis was performed at 4 °C. Analysis of DNA damage was accomplished by fluorescence microscopy using a fully automated cell scanning system Metafer-4 (Metasystems) as described in[70]. DNA damage was assessed as “Tail DNA in %”. Statistical evaluation of two differently treated cell aliquots was performed with the Mann Whitney test using GraphPad Prism version 5.04 for Windows.

Structure (SMILES): CN1CCc2c(c3ccccc3n2Cc2ccc(C(=O)NO)cc2)C1 [tubastatin A]
- doxorubicin accumulation, IMR-32 (IMR-32 cells): increased accumulation of doxorubicin
- cell surface P-gp levels (P-glycoprotein): slightly increased surface P-gp levels
- viability of BE(2)-C cells, single treatment (BE(2)-C cells [1]; 100 ng/ml doxorubicin, 7.5 µM tubastatin A or vacuolin-1 alone): did not substantially reduce cell viability
- viability of BE(2)-C cells, combination with 100 ng/ml doxorubicin, 24 h or 48 h (BE(2)-C cells [1]; 7.5 µM tubastatin A): strongly reduced viability
- DSBs (γH2A.X), co-treatment with doxorubicin compared to doxorubicin alone (BE(2)-C cells [2]; 100 ng/ml doxorubicin): significantly increased the amount of DSBs
- DSBs (γH2A.X), treatment alone in the absence of doxorubicin (BE(2)-C cells [2]; verapamil 10 µM): increase DSBs
- DSBs in comet assays, addition to doxorubicin treatment (BE(2)-C cells [3]; tubastatin A 7.5 µM + doxorubicin 100 ng/ml): substantially increased doxorubicin induced DSBs
- DSBs in comet assays, single treatment (BE(2)-C cells [3]; tubastatin A 7.5 µM or doxorubicin 100 ng/ml): increased DSBs only trend-wise
